Reference: patent US20020002170A1, “Piperidine and piperazine derivatives as inhibitors of the abeta fibril formation” (priority 1999, published 2002)
Where a name gives a salt, the structure may show the parent alone.

Which melting point does the source give for COc1ccc(C2(c3ccc(OC)cc3)CCN(CC[C@@H]3C=C4c5cccc6[nH]cc(c56)C[C@H]4N(C)C3)CC2)cc1 here?
Its melting point is 184 to 187 °C (dec.).

Which melting point does the source give for CN1C[C@H](CCN2CCC(O)(c3ccc(Cl)cc3)CC2)C=C2c3cccc4[nH]cc(c34)C[C@H]21 here?
The melting point was 154 to 157 °C.

Which melting point does the source give for CN1C[C@H](CCN2CCN(C(c3ccccc3)c3ccccc3)CC2)C=C2c3cccc4[nH]cc(c34)C[C@H]21 here?
Its melting point is 165 to 169 °C.

Which melting point does the source give for CN1C[C@H](CN2CCN(C(c3ccccc3)c3ccccc3)CC2)C=C2c3cccc4[nH]cc(c34)C[C@H]21 here?
Its melting point is > 200 °C (dec.).

For CN1C[C@H](CN2CCC(O)(c3ccc(Cl)cc3)CC2)C=C2c3cccc4c3c(cn4C)C[C@H]21, which melting point is on record?
Its melting point is 101 to 107 °C.

Which melting point does the source give for CN1C[C@H](CN2CCN(C(c3ccccc3)c3ccccc3)CC2)C=C2c3cccc4c3c(cn4C)C[C@H]21 here?
Its melting point is 172 to 175 °C.

Which melting point does the source give for COc1ccc(C2(c3ccc(OC)cc3)CCN(C[C@@H]3C=C4c5cccc6[nH]c(Cl)c(c56)C[C@H]4N(C)C3)CC2)cc1 here?
Its melting point is > 204 °C (dec.).

Which melting point does the source give for CN1C[C@H](CN2CCC(O)(c3ccc(Cl)cc3)CC2)C=C2c3cccc4[nH]c(Cl)c(c34)C[C@H]21 here?
Its melting point is > 192 °C (dec.).

For CN1C[C@H](CN2CCN(C(c3ccccc3)c3ccccc3)CC2)C=C2c3cccc4[nH]c(Cl)c(c34)C[C@H]21, which melting point is on record?
The melting point was 208 °C (dec.).

With CN1C[C@H](CN2CCN(C(c3ccccc3)c3ccccc3)CC2)C[C@@H]2c3cccc4[nH]cc(c34)C[C@H]21 as the molecule, how does the melting point read?
The melting point was 230 to 233 °C.

For CN1C[C@H](CN2CCN(C(c3ccccc3)c3ccccc3)CC2)C[C@@H]2c3cccc4[nH]c(Cl)c(c34)C[C@H]21, which melting point is on record?
Its melting point is 250 °C (dec.).

With CN1C[C@H](CN2CCN(C(c3ccccc3)c3ccccc3)CC2)C[C@@H]2c3cccc4[nH]c(Br)c(c34)C[C@H]21 as the molecule, how does the melting point read?
The melting point was 255 °C (dec.).

For CCN1C[C@H](CN2CCN(C(c3ccccc3)c3ccccc3)CC2)C[C@@H]2c3cccc4[nH]cc(c34)C[C@H]21, which melting point is on record?
Its melting point is 203 to 205 °C.

Which melting point does the source give for CN1C[C@H](CCN2CCN(C(c3ccccc3)c3ccccc3)CC2)C[C@@H]2c3cccc4[nH]cc(c34)C[C@H]21 here?
Its melting point is 206 to 212 °C.

With COc1ccc(C2(c3ccc(OC)cc3)CCN(C[C@H]3CN(C)[C@@H]4Cc5c[nH]c6cccc(c56)[C@@]4(OC)C3)CC2)cc1 as the molecule, how does the melting point read?
Its melting point is 215 to 222 °C.

Which melting point does the source give for CO[C@]12C[C@@H](CN3CCC(O)(c4ccc(Cl)cc4)CC3)CN(C)[C@@H]1Cc1c[nH]c3cccc2c13 here?
The melting point was 144 to 148 °C.

For CO[C@]12C[C@@H](CN3CCC(O)(c4cccc(C(F)(F)F)c4)CC3)CN(C)[C@@H]1Cc1c[nH]c3cccc2c13, which melting point is on record?
Its melting point is 135 to 140 °C.

For CO[C@]12C[C@@H](CN3CCC(O)(c4ccc(Cl)c(C(F)(F)F)c4)CC3)CN(C)[C@@H]1Cc1c[nH]c3cccc2c13, which melting point is on record?
The melting point was 143 to 146 °C.

For COc1ccc(C2(c3ccc(OC)cc3)CCN(CC[C@H]3CN(C)[C@@H]4Cc5c[nH]c6cccc(c56)[C@@]4(OC)C3)CC2)cc1, which melting point is on record?
Its melting point is 129 to 136 °C.

With CO[C@]12C[C@@H](CCN3CCC(O)(c4ccc(Cl)cc4)CC3)CN(C)[C@@H]1Cc1c[nH]c3cccc2c13 as the molecule, how does the melting point read?
The melting point was 133 to 139 °C.

Which melting point does the source give for CO[C@]12C[C@@H](CCN3CCN(C(c4ccccc4)c4ccccc4)CC3)CN(C)[C@@H]1Cc1c[nH]c3cccc2c13 here?
Its melting point is 130 °C.

Which melting point does the source give for COc1cccc2c1C[C@H]1C[C@@H](CN3CCC(O)(c4ccc(Cl)cc4)CC3)CN(C)[C@@H]1C2 here?
The melting point was 202 to 204 °C.

For COc1ccc(C2(c3ccc(OC)cc3)CCN(C[C@@H]3C[C@@H]4Cc5c(cccc5OC)C[C@H]4N(C)C3)CC2)cc1 (as salt: fumarate), which melting point is on record?
The melting point was 216 to 219 °C.

Which melting point does the source give for COc1ccc(C2(c3ccc(OC)cc3)CCN(CC[C@@H]3C[C@@H]4Cc5c(cccc5OC)C[C@H]4N(C)C3)CC2)cc1 (as salt: succinate) here?
Its melting point is 138 to 142 °C.

Which melting point does the source give for COc1cccc2c1C[C@H]1C[C@@H](CCN3CCC(O)(c4ccc(Cl)cc4)CC3)CN(C)[C@@H]1C2 (as salt: succinate) here?
The melting point was 212 to 215 °C.

For COc1ccc(C2(c3ccc(OC)cc3)CCN(C[C@H]3CN(C)[C@@H]4Cc5c(Br)[nH]c6cccc(c56)[C@@]4(OC)C3)CC2)cc1 (as salt: tartrate), which melting point is on record?
Its melting point is 167 to 172 °C.

For COc1cccc2c1C[C@H]1C[C@@H](CCN3CCN(C(c4ccccc4)c4ccccc4)CC3)CN(C)[C@@H]1C2 [Example 5, [3S,4aR,10aR]-3-[2-(4-Benzhydryl-piperazin-1-yl)-ethyl]-6-methoxy-1-methyl-1,2,3,4,4a,5,10,10a-octahydro-benzo[g]quinoline], which melting point is on record?
The melting point was 140 to 148 °C.

For COc1cccc2c1C[C@H]1C[C@@H](CN3CCN(C(c4ccccc4)c4ccccc4)CC3)CN(C)[C@@H]1C2 [Example 10, [3S,4aR,10aR]-3-(4-Benzhydryl-piperazin-1-ylmethyl)-6-methoxy-1-methyl-1,2,3,4,4a,5,10,10a-octahydro-benzo[g]quinoline], which melting point is on record?
The melting point was 278 to 280 °C.

For COc1cccc2c1C[C@H]1C[C@@H](CN3CCC(NC(=O)C(c4ccccc4)c4ccccc4)CC3)CN(C)[C@@H]1C2 [Example 12, N-[1-((3S,4aR,10aR)-6-Methoxy-1-methyl-1,2,3,4,4a,5,10,10a-octahydro-benzo[g]quinolin-3-ylmethyl)-piperidin-4-yl]-2,2-diphenyl-acetamide], which melting point is on record?
Its melting point is 219 to 222 °C.
